Assay results reported in patent US8501778B2, “Aralkyl piperidine derivatives and their uses as antalgic or ataractic agent” (priority 2008, dated 2013).
Where two headings read alike, the source gives them in different places.

Columns and labels:
Kunming mice [1] = experiment: Acetic Acid Twisting Method in mice (antalgic effect); type: in vivo; conditions: Mus musculus, sc
Kunming mice [2] = experiment: Hot Plate Method in mice (antalgic effect); type: in vivo; conditions: Mus musculus, sc, subcutaneous injection at neck, 1 hour after dosing, hot plate 55.5° C., read-out: Increasing rate of pain threshold (%)
mice [3] = conditions: mouse, in vivo
[4] = tested on: S. typhimurium TA97, TA98, TA100 and TA102; experiment: Bacterial Reverse-Mutation Assay (Ames TS); type: cell-based
From the text: Strains: S. typhimurium TA97, TA98, TA100 and TA102.
Results: The assay included two parts: without S9 and with S9.

mice [5] = conditions: daily for eight days; III-15 60 mg/kg oral gavage, Morphine 10 mg/kg PO; Hot Plate 15 minutes after each administration
mice [6] = experiment: Jump test in mice (physical dependence, naloxone precipitated); conditions: III-15 seven times in two days, 20-120 mg/kg PO, naloxone 2 mg/kg i.v. three hours after last dosing
[7] = Animal model studies, summary (oral absorption, therapeutic index); conditions: summary statement
mice [8] = experiment: Conditioned Place Preference test in mice (psychological dependence); conditions: III-15 60 mg/kg oral gavage each day for six consecutive days
[9] = read-out: twisting response inhibiting rate (%)

Compound `COc1ccc(CN2CCC(O)(CC(=O)c3ccccc3)CC2)cc1.Cl` [III-15, N-p-methoxybenzyl-4-benzoylmethyl-4-piperidinol hydrochloride] has an inhibition in vivo at 20 mg/kg (Kunming mice [1]; read-out: antalgic) of 96%, an inhibition in vivo at 10 mg/kg (Kunming mice [1]; [9]) of 55.4% and an inhibition in vivo at 20 mg/kg (Kunming mice [1]; [9]) of 94.4%. It also gave an inhibition in vivo at 40 mg/kg (Kunming mice [1]; [9]) of 100%, a change in vivo at 10 mg/kg (Kunming mice [2]; 10 mg/kg) of 77.7% and a change in vivo at 20 mg/kg (Kunming mice [2]; 20 mg/kg) of 118%. The change in vivo at 40 mg/kg (Kunming mice [2]; 40 mg/kg) was 260%, the “reversal of the antalgic effect by naloxone” value (mice [3]) was “does not reversed by naloxone” and the “Ames test result (revertants)” value ([4]; TA97, TA98, TA100, TA102, without S9 and with S9, all tested doses) was “negative”. For the same compound, the “inhibitory effect on bacterial growth” value ([4]; without S9 TA98 5000 μg/plate and with S9 TA97 5000 μg/plate, no inhibition at all other doses and strains) was “inhibitory effects on bacterial for the growth were seen”, the “change of pain threshold / antalgic effect on consecutive administration (drug resistance)” value (mice [5]) was “does not show weakening” and the “jumping behavior after naloxone (physical dependence)” value (mice [6]) was “no jumping behavior is observed”. For the same compound, the “absorption after oral administration” value [7] was “good absorption after oral administration” and the “Conditioned Place Preference (psychological dependence)” value (mice [8]) was “do not show Conditioned Place Preference”.
